# Measurements: article PMC9503778, “Targeted Isolation of Antibiotic Brominated Alkaloids from the Marine Sponge Pseudoceratina durissima Using Virtual Screening and Molecular Networking” (Marine Drugs, 2022)
# Where “and” joins values, the source holds several entries; their conditions need not be identical. Identical values can stand only once. Like-named read-outs stand apart in the source and are kept apart here.
# Tests used:
# [1] = system: A. baumannii (G-) strain ATCC 19606; assay: Antimicrobial growth inhibition (CO-ADD), A. baumannii; format: cell-based, Acinetobacter baumannii; settings: for % inhibition A. baumannii: 32 µg/mL; for inhibition at 32 µg/mL / MIC: Acinetobacter baumannii; for MIC: ATCC19606, ATCC 19606, read-out: MIC A. baumannii
# Method: (§1) Compounds 1−3 and 5−12 were assayed against a selection of medically important pathogenic microorganisms (MRSA, E. coli, K. pneumoniae, A. baumanii, P. aeruginosa, C. albicans, C. neoformans), Table 4. […] To the best of our knowledge this compound had not been tested against any drug resistant strain of Gram-positive bacterium until this study.
# (§2) The antimicrobial activity testing was performed by the Community for Antimicrobial Drug Discovery (CO-ADD). Compounds were assayed against a range of both Gram negative and Gram positive bacteria (see Supplementary Materials S3) including methicillin-resistant Staphylococcus aureus (MRSA) (G+), Escherichia coli (G-), Klebsiella pneumoniae (G-), Acinetobacter baumannii (G-), Pseudomonas aeruginosa (G-) together with two species of fungus (Candida albicans and Cryptococcus neoformans).
# (§3) S3. Antimicrobial activity testing methodology
# (§4) The compounds submitted to CO-ADD were evaluated in duplicate (n = 2) against seven microorganisms (five bacteria and two fungi) at a concentration of 32 µg/mL in a 384-well, non-binding surface plate (NBS) for each bacterial/fungal strain, keeping the final DMSO concentration to a maximum of 1% DMSO. All bacteria were cultured in cation-adjusted Mueller-Hinton broth (CAMHB) at 37 °C overnight. A sample of each culture was then diluted 40-fold in fresh broth and incubated at 37 °C for 1.5-3 h. The resultant mid-log phase cultures were diluted (CFU/mL measured by OD600), then added to each well of the compound containing plates, giving a cell density of 5x10^5 CFU/mL and a total volume of 50 µL. All the plates were covered and incubated at 37 °C for 18 h without shaking. […] Inhibition of bacterial growth was determined measuring absorbance at 600 nm (OD600) using a Tecan M1000 Pro mon-ochromator plate reader. […]
# (§5) 2 h. The absorbance was measured using a Biotek Synergy HTX plate reader. The percentage of growth inhibition was calculated for each well, using negative control (medium only) and positive control (bacteria without inhibitors) on the same plate as the references. The significance of inhibition values was determined by modified Z-scores, calculated using the median and MAD of the samples (no controls) on the same plate. Samples with inhibition value above 80% and Z-score above 2.5 for either replicate (n = 2 on different plates) were classed as actives.
# (§6) Colistin and vancomycin were used as positive bacterial inhibitor standards for Gram-negative and Gram-positive bac-teria, respectively. Fluconazole was used as a positive fungal inhibitor standard for C. albicans and C. neoformans. The antibiotics were provided in four concentrations, with two above and two below its MIC value, and plated into the first eight wells of column 23 of the 384-well NBS plates. The quality control (QC) of the assays was determined by the antimicrobial controls and the Z’-factor (using positive and negative controls). Each plate was deemed to fulfil the qual- […]
# (§7) full growth inhibition at their highest concentration, and no growth inhibition at their lowest concentration. The seven […]
# (§8) test microorganisms were Staphylococcus aureus MRSA (ATCC 43300), Escherichia coli (ATCC 25922), Klebsiella pneu-moniae (ATCC 700603), Acinetobacter baumanii (ATCC19606), Pseudomonas aeruginosa (ATCC 27853), Candida albicans (ATCC 90028) and Cryptococcus neoformans var. grubii (H99; ATCC 208821).
# (§9) S4. Anthelmintic activity testing methodology
# (§10) Dose-response evaluations were carried out to estimate the half-maximal inhibitory concentrations (IC50 values) for compounds against Haemonchus contortus (Haecon-5 strain) exsheathed third-stage larvae (xL3s). H. contortus were maintained in experimental sheep and procured in accordance with the institutional animal ethics guidelines and the regulations of Australia (permit no. 1714374; University of Melbourne). Immediately prior to use, third-stage larvae (L3s) were exsheathed and sterilised by incubation in 0.15% (v/v) bleach at 38 °C for 20 min, followed by washes in […]
# [2] = system: C. neoformans var. grubii strain ATCC 208821; assay: Antimicrobial growth inhibition (CO-ADD), C. neoformans; format: cell-based, Cryptococcus neoformans; settings: duplicate (n = 2) values; for % inhibition C. neoformans: 32 µg/mL
# Method: as §1, §2, §3
# The compounds submitted to CO-ADD were evaluated in duplicate (n = 2) against seven microorganisms (five bacteria and two fungi) at a concentration of 32 µg/mL in a 384-well, non-binding surface plate (NBS) for each bacterial/fungal strain, keeping the final DMSO concentration to a maximum of 1% DMSO. All bacteria were cultured in cation-adjusted […]
# Fungal strains were cultured for 3 days on Yeast Extract-Peptone Dextrose (YPD) agar at 30 °C. A yeast suspension of 1 x 10^6 to 5 x 10^6 CFU/mL (as determined by OD530) was prepared from five colonies. The suspension was subsequently diluted and added to each well of the compound-containing plates giving a final cell density of fungi suspension of 2.5 x 10^3 CFU/mL and a total volume of 50 µL. All plates were covered and incubated at 35 °C for 24 h without shaking. […]
# as §5, with “Growth inhibition of C. albicans was determined measuring absorbance at 530 nm (OD530), while the growth inhibition of C. neoformans was determined measuring the difference in absorbance between 600 and 570 nm (OD600-570), after the addition of resazurin (0.001% final concentration) and incubation at 35 °C for an additional 2 h.” for “2 h.”
# as §6, §7, §8, §9
# Dose-response evaluations were carried out to estimate the half-maximal inhibitory concentrations (IC50 values) for compounds against Haemonchus contortus (Haecon-5 strain) exsheathed third-stage larvae (xL3s). H. contortus were maintained in experimental sheep and procured in accordance with the institutional animal ethics guidelines and the […]
# [3] = system: MRSA (G+) strain ATCC 43300; assay: Antimicrobial growth inhibition (CO-ADD), MRSA; format: cell-based, Staphylococcus aureus; settings: for inhibition at 32 µg/mL / MIC: Staphylococcus aureus; for MIC: ATCC 43300, MIC = concentration at which growth inhibited by ≥80%, range 0.25−32 µg/mL, read-out: MIC MRSA
# Method: as §1, §2, §3, §4, §5, §6, §7, §8, §9, §10
# [4] = system: human red blood cells; assay: Haemolysis assay (CO-ADD); format: cell-based
# [5] = Cytotoxicity assay (CO-ADD); format: cell-based; settings: human embryonic kidney cells
# [6] = system: K. pneumoniae (G-) strain ATCC 700603; assay: Antimicrobial growth inhibition (CO-ADD), K. pneumoniae; format: cell-based, Klebsiella pneumoniae; settings: for % inhibition K. pneumoniae: 32 µg/mL; for inhibition at 32 µg/mL / MIC: Klebsiella pneumoniae; for MIC: ATCC700603, ATCC 700603, read-out: MIC K. pneumoniae
# Method: as §1, §2, §3, §4, §5, §6, §7, §8, §9, §10
# [7] = system: E. Coli (G-) strain ATCC 25922; assay: Antimicrobial growth inhibition (CO-ADD), E. coli; format: cell-based, Escherichia coli; settings: for % inhibition E. coli: 32 µg/mL; for inhibition at 32 µg/mL / MIC: Escherichia coli; for MIC: ATCC25922, ATCC 25922, MIC = concentration at which growth inhibited by ≥80%, read-out: MIC E. coli
# Method: as §1, §2, §3, §4, §5, §6, §7, §8, §9, §10
# [8] = 32 µg/mL, duplicate (n = 2) values
# [9] = ATCC700603, 32 µg/mL, duplicate (n = 2) values, read-out: % inhibition K. pneumoniae
# [10] = ATCC25922, 32 µg/mL, duplicate (n = 2) values, read-out: % inhibition E. coli
# [11] = ATCC19606, 32 µg/mL, duplicate (n = 2) values, read-out: % inhibition A. baumannii
MIC [1] [µg/mL],MIC [3] [µg/mL],MIC [6] [µg/mL],MIC [7] [µg/mL],Structure (SMILES),% inhibition A. baumannii ([1]; duplicate (n = 2) values),% inhibition C. neoformans [2],"% inhibition MRSA [3, 8]",Haemolysis (HC10) [4] [µg/mL],% inhibition K. pneumoniae ([6]; duplicate (n = 2) values),% inhibition E. coli ([7]; duplicate (n = 2) values),CC50 ([5]; human) [µg/mL],"inhibition at 32 µg/mL [6, 9] [%]","inhibition at 32 µg/mL [7, 10] [%]","inhibition at 32 µg/mL [1, 11] [%]",other results
> 32,> 32,> 32,> 32,"COC1(OC)C(Br)=CC(O)(CC(N)=O)C=C1Br [Compound 6, 2-(3,5-dibromo-1-hydroxy-4,4-dimethoxycyclohexa-2,5-dien-1-yl)acetamide]",2.3% and 9.7%,11.1% and 2.0%,3.3% and 7.0%,>32,6.4%,15.6%,> 32,12.3,14.6,,
> 32,> 32,> 32,> 32,"COc1c(Br)cc(CC#N)c(O)c1Br [Compound 8, 2-(3,5-dibromo-2-hydroxy-4-methoxyphenyl)acetonitrile]",7.5%,11.1% and 4.0%,8.5%,>32,12.5%,16.9%,> 32,10.3,12.7,11,"inhibition at 32 µg/mL ([3]; 32 µg/mL, duplicate (n = 2) values, read-out: % inhibition MRSA): 7.6%"
> 32,> 32,> 32,> 32,"NC(=O)Cc1c(O)cc(Br)c(O)c1Br [Compound 9, subereaphenol A]",18.5%,11.9%,,1.032,15.5% and 6.6%,1.5% and 9.6%,> 32,,,10.8,"inhibition at 32 µg/mL ([2]; Cryptococcus neoformans, ATCC208821, 32 µg/mL, read-out: % inhibition C. neoformans): 11.2%"

Structure (SMILES),MIC [1] [µg/mL],MIC [3] [µg/mL],MIC [6] [µg/mL],MIC [7] [µg/mL],% inhibition A. baumannii ([1]; duplicate (n = 2) values),% inhibition C. neoformans [2],"% inhibition MRSA [3, 8]",Haemolysis (HC10) [4] [µg/mL],% inhibition K. pneumoniae ([6]; duplicate (n = 2) values),% inhibition E. coli ([7]; duplicate (n = 2) values),CC50 ([5]; human) [µg/mL],"inhibition at 32 µg/mL [6, 9] [%]","inhibition at 32 µg/mL [7, 10] [%]","inhibition at 32 µg/mL [1, 11] [%]",other results
"COC1=C(Br)[C@H](O)[C@@]2(C=C1Br)CC(C(=O)NCCCOc1c(Br)cc(CCNC(=O)C3=NO[C@]4(C=C(Br)C(OC)=C(Br)[C@@H]4O)C3)cc1Br)=NO2 [Compound 5, 11,17-deoxyfistularin-3]",> 32,> 32,> 32,> 32,8.5%,10.4% and 3.8%,19.8%,>32,8.7%,9.5%,,,,,"inhibition at 32 µg/mL ([1]; ATCC19606, read-out: % inhibition A. baumannii, 32 µg/mL, duplicate (n = 2) values): 10.2%; inhibition at 32 µg/mL ([3]; read-out: % inhibition MRSA, 32 µg/mL, duplicate (n = 2) values): 10%; CC50 [5]: > 32 µg/mL; inhibition at 32 µg/mL ([6]; ATCC700603, read-out: % inhibition K. pneumoniae, 32 µg/mL, duplicate (n = 2) values): 6.5%; inhibition at 32 µg/mL ([7]; ATCC25922, read-out: % inhibition E. coli, 32 µg/mL, duplicate (n = 2) values): 8.1%"
